In patent US10239880B2, “Cyclopenta[d]pyrimidines and substituted cyclopenta[d]pyrimidines as antitubulin and microtubule targeting agents, monocyclic pyrimidines as tubulin inhibitors, and pyrrolopyrimidines as targeted antifolates and tubulin and multiple receptor tyrosine kinase inhibition and antitumor agents” (Duquesne University of the Holy Spirit, priority 2015, dated 2019):
Counter-ions that a name gives are not always drawn. Like-named read-outs stand apart in the source and are kept apart here.

Experiments:
[1] = tested on: MDA-MB-435 cancer cells; test: Antiproliferative effect in MDA-MB-435 cancer cells (SRB assay); type: cell-based
[2] = tested on: A431; test: A431 cytotoxicity; details: Homo sapiens
[3] = biological target: PDGFR-β (Homo sapiens, UniProt P09619); test: Kinase inhibition, whole-cell assay, PDGFR-β; type: cell-based
PDGFR-β, sequence (P09619 33-1106, species assumed): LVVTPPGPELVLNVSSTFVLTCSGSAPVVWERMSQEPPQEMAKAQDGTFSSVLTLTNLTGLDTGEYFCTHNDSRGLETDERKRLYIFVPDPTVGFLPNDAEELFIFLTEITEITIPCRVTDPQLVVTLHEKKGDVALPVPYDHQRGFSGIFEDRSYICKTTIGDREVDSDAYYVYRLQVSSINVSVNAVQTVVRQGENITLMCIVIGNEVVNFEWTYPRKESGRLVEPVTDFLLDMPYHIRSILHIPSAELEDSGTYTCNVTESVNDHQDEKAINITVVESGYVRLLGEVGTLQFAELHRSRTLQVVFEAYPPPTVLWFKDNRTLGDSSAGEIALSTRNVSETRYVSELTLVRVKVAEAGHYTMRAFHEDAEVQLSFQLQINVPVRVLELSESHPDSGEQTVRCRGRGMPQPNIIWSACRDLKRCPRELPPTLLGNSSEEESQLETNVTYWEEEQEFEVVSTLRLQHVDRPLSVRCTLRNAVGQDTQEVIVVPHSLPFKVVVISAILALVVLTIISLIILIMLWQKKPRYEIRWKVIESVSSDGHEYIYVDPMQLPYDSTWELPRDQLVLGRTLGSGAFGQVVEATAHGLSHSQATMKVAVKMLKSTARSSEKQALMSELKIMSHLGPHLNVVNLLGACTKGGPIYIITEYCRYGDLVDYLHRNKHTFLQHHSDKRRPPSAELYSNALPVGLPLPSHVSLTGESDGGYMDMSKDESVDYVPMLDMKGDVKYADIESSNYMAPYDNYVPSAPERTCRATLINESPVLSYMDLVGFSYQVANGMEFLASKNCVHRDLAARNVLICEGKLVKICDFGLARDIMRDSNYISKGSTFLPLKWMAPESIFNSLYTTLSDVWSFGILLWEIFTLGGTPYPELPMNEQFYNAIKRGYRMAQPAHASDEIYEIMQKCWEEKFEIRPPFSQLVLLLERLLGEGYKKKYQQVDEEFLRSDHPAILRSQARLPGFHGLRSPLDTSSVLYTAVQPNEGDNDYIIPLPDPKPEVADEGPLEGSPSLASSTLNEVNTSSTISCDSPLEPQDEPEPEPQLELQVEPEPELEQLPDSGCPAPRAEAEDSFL

[4] = tested on: A-10 cells; test: Microtubule depolymerization, cell-based phenotypic assay in A-10 cells
[5] = biological target: EGFR (Homo sapiens, UniProt P00533); test: Kinase inhibition, whole-cell assay, EGFR; type: cell-based
EGFR, sequence (P00533 25-1210, species assumed): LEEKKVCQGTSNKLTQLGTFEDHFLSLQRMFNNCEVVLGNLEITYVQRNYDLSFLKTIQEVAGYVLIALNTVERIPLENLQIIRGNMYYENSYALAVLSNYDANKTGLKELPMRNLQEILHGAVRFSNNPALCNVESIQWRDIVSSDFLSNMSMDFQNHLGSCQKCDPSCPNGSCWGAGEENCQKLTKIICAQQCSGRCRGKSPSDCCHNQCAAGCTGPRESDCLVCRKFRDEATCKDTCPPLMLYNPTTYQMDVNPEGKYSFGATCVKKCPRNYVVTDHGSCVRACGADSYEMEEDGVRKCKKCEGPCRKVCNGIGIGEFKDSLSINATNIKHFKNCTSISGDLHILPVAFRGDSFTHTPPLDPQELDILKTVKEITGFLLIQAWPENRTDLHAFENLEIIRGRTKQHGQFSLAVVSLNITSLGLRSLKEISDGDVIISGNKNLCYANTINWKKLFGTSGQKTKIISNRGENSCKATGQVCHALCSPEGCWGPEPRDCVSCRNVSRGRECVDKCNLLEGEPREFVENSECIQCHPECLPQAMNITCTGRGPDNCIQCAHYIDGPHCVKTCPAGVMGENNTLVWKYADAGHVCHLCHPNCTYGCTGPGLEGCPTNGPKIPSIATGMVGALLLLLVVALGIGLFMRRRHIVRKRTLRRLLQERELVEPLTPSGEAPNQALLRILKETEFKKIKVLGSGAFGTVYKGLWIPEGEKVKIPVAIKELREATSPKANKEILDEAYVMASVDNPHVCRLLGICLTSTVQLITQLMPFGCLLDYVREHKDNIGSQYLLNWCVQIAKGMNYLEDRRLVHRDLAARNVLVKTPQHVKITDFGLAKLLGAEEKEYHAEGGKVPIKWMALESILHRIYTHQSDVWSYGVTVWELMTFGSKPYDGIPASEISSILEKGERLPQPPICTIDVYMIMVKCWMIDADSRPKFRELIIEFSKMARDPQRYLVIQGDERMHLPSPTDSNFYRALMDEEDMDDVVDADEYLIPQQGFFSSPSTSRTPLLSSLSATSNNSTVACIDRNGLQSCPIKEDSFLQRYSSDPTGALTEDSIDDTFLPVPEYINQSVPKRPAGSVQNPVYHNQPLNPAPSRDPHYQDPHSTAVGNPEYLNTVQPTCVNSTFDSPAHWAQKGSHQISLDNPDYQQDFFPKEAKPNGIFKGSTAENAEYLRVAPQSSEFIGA

[6] = tested on: MDA-MB-435 xenograft; test: MDA-MB-435 xenograft trial; details: IP 75 mg/kg; for adverse effects / toxicity in xenograft trial: cumulative dosing
[7] = tested on: KB (RFC/FRα/PCFT); test: Growth inhibition of KB tumor cells; type: cell-based, human
Experimental: Cell proliferation was assayed with CellTiter-Blue™ with a fluorescent plate reader.

[8] = tested on: D4 (FRβ); test: Proliferation inhibition, FRβ-expressing D4 cells; type: cell-based
[9] = tested on: PC43-10 (RFC); test: Proliferation inhibition, RFC-expressing PC43-10 cells; type: cell-based, Chinese hamster; details: Table 11
Source text: (§1) AGF215, AGF234 and AGF263 were compared to AGF23 as inhibitors of proliferation of engineered Chinese hamster ovary (CHO) cells expressing human PCFT (R2/PCFT4), FRα (RT16), or RFC (PC43-10).

[10] = tested on: RT16 (FRα); test: Proliferation inhibition, FRα-expressing RT16 cells; type: cell-based, Chinese hamster
Source text: as §1

[11] = tested on: Pgp expressing SK-OV-3 MDR1-6-6; test: Antiproliferative activity, Pgp expressing SK-OV-3 MDR1-6-6; type: cell-based; details: Homo sapiens, SK-OV-3; Table 6; read-out: IC50 ± SD Pgp expressing SK-OV-3 MDR1-6-6
[12] = tested on: Parental SK-OV-3; test: Antiproliferative activity, parental SK-OV-3; type: cell-based; details: Homo sapiens, Table 6, read-out: IC50 ± SD Parental SK-OV-3
[13] = tested on: β-III overexpressing HeLa; test: Antiproliferative activity, β-III overexpressing HeLa; type: cell-based; details: Homo sapiens, HeLa; Table 7; read-out: IC50 ± SD β-III overexpressing HeLa
Source text: (§2) Another clinically relevant drug resistance mechanism of tubulin-targeting agents is the overexpression of the βIII isotype of tubulin.

[14] = tested on: Parental HeLa; test: Antiproliferative activity, parental HeLa; type: cell-based; details: Homo sapiens, Table 7, read-out: IC50 ± SD Parental HeLa
Source text: as §2

[15] = Homo sapiens, MDA-MB-435, read-out: MDA-MB-435 IC50
[16] = A-431, read-out: A431 cytotoxicity, Table 1, IC50 ± SD
[17] = Table 1, IC50 ± SD, read-out: Kinase inhibition IC50 [whole-cell assays] PDGFR-β
[18] = Rattus norvegicus, A10, read-out: Microtubule depolymerization EC50
[19] = Table 1, IC50 ± SD, read-out: Kinase inhibition IC50 [whole-cell assays] EGFR
[20] = Table 3, read-out: MDA-MB-435 IC50
[21] = Table 3, read-out: Microtubule depolymerization EC50
[22] = Table 11, read-out: IC50 RFC/FRα/PCFT KB
[23] = with folic acid (+FA), read-out: IC50 RFC/FRα/PCFT KB (+FA)
[24] = Table 11, read-out: IC50 FRβ D4
[25] = with folic acid (+FA), read-out: IC50 FRβ D4 (+FA)
[26] = with folic acid (+FA), read-out: IC50 FRα RT16 (+FA)
[27] = Rattus norvegicus, A10, read-out: EC50 in A-10 cells (Concentration that causes 50% tubulin loss in A-10 cells), Table 4, Section II compounds
[28] = Homo sapiens, MDA-MB-435, Table 4, Section II compounds, SRB assay, read-out: IC50 ± SD (MDA-MB-435) Cancer cells

Compound `COc1ccc(N(C)c2nc(C)nc3cc[nH]c23)cc1` [1•HCl] has an IC50 [1, 15] of 96 ± 5.3 nM, an IC50 [2, 16] of 215 ± 30.1 nM and an IC50 [3, 17] of 250 ± 20.6 nM. The EC50 [4, 18] was 1200 nM and the IC50 [5, 19] was 29.5 ± 3.1 nM.
With `COc1ccc(N(C)c2nc(C)nc3ccn(C)c23)cc1` [2•HCl] the “final average tumor mass compared to the vehicle” value ([6]; Day 15) was “statistically significant (p<0.001) lower final average tumor mass”, the mouse weight change ([6]; compared to the vehicle) was “recoverable weight loss” and the “adverse effects / toxicity in xenograft trial” value (“adverse effects / toxicity” for short) ([6]; 75 mg/kg) was “noticeable adverse effects on the central nervous system”. The “adverse effects / toxicity” value ([6]; listed as AG 141, 75 mg/kg) was “severe seizures in two mice”, the “adverse effects / toxicity” value ([6]; listed as AG141, 75 mg/kg) was “unacceptable cumulative CNS toxicities” and the “tumor growth during the trial” value ([6]; nude mice) was “inhibited tumor growth”. The IC50 [1, 15] was 4.3 ± 0.3 nM, the IC50 ([1]; Homo sapiens, read-out: IC50 ± SD in MDA-435 Cells) was 4.3 ± 0.3 nM and the IC50 [2, 16] was 8.8 ± 0.9 nM. For the same compound, the IC50 ([2]; A-431, read-out: A431 cytotoxicity, Table 3b, unit inferred) was 107 ± 18 nM, the IC50 [3, 17] was 67 ± 10.2 nM and the IC50 ([3]; Table 3b, unit inferred, read-out: PDGFR kinase inhibition) was over 200 nM. For the same compound, the EC50 ([4]; Rattus norvegicus, A10, read-out: EC50 for Microtubule Depolymerization in A · 10 Cells) was 7.4 nM, the EC50 [4, 18] was 7.4 nM and the IC50 [5, 19] was 25.2 ± 0.41 nM. For the same compound, the IC50 ([5]; Table 3b, unit inferred, read-out: EGFR kinase inhibition) was 89.3 ± 9.2 nM.
Work on `CSc1ccc(N(C)c2nc(C)nc3cc[nH]c23)cc1` [4•HCl] yielded an IC50 [1, 20] of 49.9 ± 10.4 nM and an EC50 [4, 21] of 1100 nM.
Work on `CSc1ccc(N(C)c2nc(C)nc3ccn(C)c23)cc1` [5•HCl] yielded an IC50 [1, 20] of 6.2 ± 1 nM and an EC50 [4, 21] of 23 nM.
In the case of `COc1ccc(N(C)c2nc(C)nc3ccn(C(C)C)c23)cc1.Cl` [AG174], the antitumor effects ([6]; MDA-MB-435 xenograft) is reported as “highly statistically significant (p<0.001) antitumor effects”.
Work on `Nc1nc2[nH]c(CCCOc3ccc(C(=O)N[C@@H](CCC(=O)O)C(=O)O)cc3)cc2c(=O)[nH]1` [AGF215] yielded an IC50 [7, 22] of 1.54 nM, an IC50 [7, 23] of 767 nM and an IC50 [8, 24] of 3.8 nM. The IC50 [8, 25] was over 1000 nM, the IC50 [9] was over 1000 nM and the “IC50 RFC PC43-10” value [9] was “inactive”. It also gave an IC50 [10, 26] of over 1000 nM.
`Nc1nc2[nH]c(CCCNc3ccc(C(=O)N[C@@H](CCC(=O)O)C(=O)O)cc3)cc2c(=O)[nH]1` [AGF234] showed an IC50 [7, 22] of 0.74 nM, an IC50 [7, 23] of 938 nM and an IC50 [8, 24] of 0.84 nM. The IC50 [8, 25] was 316 nM, the IC50 [9] was 670 nM and the “IC50 RFC PC43-10” value [9] was “low level of activity”. The IC50 ([10]; Table 11, read-out: IC50 FRα RT16) was 1.4 nM and the IC50 [10, 26] was 136 nM.
`Nc1nc2[nH]c(CCCSc3ccc(C(=O)N[C@@H](CCC(=O)O)C(=O)O)cc3)cc2c(=O)[nH]1` [AGF263] was tested, and the IC50 [7, 22] was 0.22 nM, the IC50 [7, 23] was 600 nM and the IC50 [9] was over 1000 nM. For the same compound, the “IC50 RFC PC43-10” value [9] was “inactive”.
`Cc1nc2c(c(N(C)c3ccc(S(C)(=O)=O)cc3)n1)CCC2` [Compd 5] was tested, and the EC50 [4, 27] was over 10000 nM.
With `CO[C@H]1CC[C@H](N(C)c2nc(C)nc3c2CCC3)CC1` [Compd 13] the EC50 [4, 27] was over 10000 nM.
With `COc1ccc(N(C)c2nc(C)nc3c2CCC3)cc1` [Compound 1] the IC50 [1, 28] was 7 ± 0.7 nM, the IC50 [11] was 16.4 ± 0.4 nM and the IC50 [12] was 11.3 ± 0.2 nM. The EC50 [4, 27] was 25.9 nM, the IC50 [13] was 9.6 ± 0.9 nM and the IC50 [14] was 12 ± 1.2 nM.
Compound `CSc1ccc(N(C)c2nc(C)nc3c2CC(C)C3)cc1` (stereo not shown) [Compound 2] has an IC50 [1, 28] of 15 ± 6.5 nM, an IC50 [11] of 22.7 ± 2.7 nM and an IC50 [12] of 21.2 ± 4 nM. The EC50 [4, 27] was 116 nM, the IC50 [13] was 14.8 ± 1.5 nM and the IC50 [14] was 19.6 ± 2 nM.
For `Cc1nc2c(c(N(C)c3ccc4c(c3)CCO4)n1)CCC2` [Compound 6], the IC50 [11] was 29.8 ± 5.6 nM, the IC50 [12] was 18.7 ± 1.2 nM and the IC50 [13] was 15 ± 1 nM. It also gave an IC50 [14] of 16 ± 1 nM.
Compound `COc1ccc(N(C)c2nc(C)nc3c2CCC3)cc1C` [Compound 7] has an IC50 [11] of 47.5 ± 2.4 nM, an IC50 [12] of 23.9 ± 2.5 nM and an IC50 [13] of 18.8 ± 1.6 nM. For the same compound, the IC50 [14] was 23 ± 1 nM.
